From patent publication US20240122878A1 (priority 2021, published 2024)
Several values for one entry are separate records, joined by “and”; a condition that tells them apart may be missing. Identical values can stand only once. Counter-ions that a name gives are not always drawn. Like-named read-outs stand apart in the source and are kept apart here.

Columns and labels:
hERG [1] = biological target: T1, hERG (Homo sapiens, UniProt Q12809); assay: Non GLP hERG channel current study (manual patch); type: cell-based; details: human
Experimental: (§1) The objective of this study was to examine the in vitro effects of three test articles on the hERG (human ether-a-go-go-related gene) channel current (a surrogate for the rapidly activating delayed rectifier cardiac potassium current, IKr). The concentration-response relationship was evaluated at near-physiological temperature (35-37° C.

[2] = biological target: hERG (human ether-a-go-go-related gene) channel current (Homo sapiens, UniProt Q12809); assay: Non GLP hERG channel current study (manual patch); type: cell-based; details: for Hill coefficient: non GLP study
Experimental: as §1

[3] = Equilibrium solubility study; details: for solubility thermodynamic: 37 °C, thermodynamic from solid, Equilibrium solubility
in vitro [4] = details: 37° C., 100 μg/mL
Experimental: Gastrointestinal solution stability was performed along with the Caco-2 cell permeability assay study.

in vitro [5] = details: human; for Papp A→B / Papp B→A: Caco-2, pH 6.5, Permeability
Source text: (§2) Based on historical data obtained in the experimental model, the mean permeability value (Papp) for each reference compound was expected to fall within the predetermined specifications.
(§3) Fluorescein was used as the zero-permeability marker in all Caco-2 cell assays as a quality control for the integrity of the Caco-2 monolayer. […] Well-defined criteria (known or readily available to those of ordinary skill in the art) have been established for the acceptance of fluorescein results to validate monolayer integrity.
(§4) Testing concentrations for the in vitro permeability assessment were determined at 1%, 10%, and 100% of the highest strength dissolved in 250 mL. […]

Caco-2 monolayer = assay: in vitro
Source text: as §2, §3, §4

[6] = Phase 1 pharmacokinetics of immediate release esmethadone (Bernstein 2019); type: in vivo; details: human, plasma; 25 mg oral daily dosing ×10 days; read-out: Steady state Cmax
Experimental: […]. […] Therefore, dose proportionality and linearity after oral administration of each of the three molecules, based on the data from Bernstein 2019 and Foster 2004 are expected. […].
Steady state Curough concentrations (measured at Day 10) were 142.7, 326.2 and 338.8 ng/ml respectively.

healthy volunteers = assay: Phase 1 study esmethadone-112 concentration-QTc sub-analysis; type: in vivo, human
[7] = cited from earlier work
hERG [8] = biological target: T1, hERG; assay: GLP hERG channel current study of esmethadone; details: human
[9] = biological target: hERG (human ether-à-go-go-related gene) channel current (Homo sapiens, UniProt Q12809); assay: GLP hERG channel current study of esmethadone
[10] = Phase 2a study plasma pharmacokinetics; type: in vivo, human; details: for Cmax: human, in vivo, C-QTc population
Experimental: (§5) Timed PK assessments were performed on Day 1 and after approximately 23 hours post Day 1 dosing, and thus for the exposure-response analysis only the Day 1 ECG data is utilized.
PK sampling was done on Day 1 at 1 hour pre-dose and 0.5, 1, 2, 4, 6, 8, and 12 hours post-dose. On Day 2 through Day 7, sampling was done 1 hour pre-dose. On Day 8, sampling was done approximately 24 hours after the last dose of study drug (on Day 7). On Day 9, sampling was done approximately 48 hours after the last dose (on Day 7).
(§6) The geometric mean of the individual Cmax values for patients in each of the active dose groups was determined.

[11] = test system: patients with major depressive disorder; assay: Phase 2a cardiodynamic ECG evaluation (concentration-QTc and by-time point analysis); type: in vivo, human
Experimental: as §5
The 12-lead digital ECG equipment was supplied and supported by the central ECG core lab vendor, eResearch Technology, Inc., ERT (Philadelphia, PA). After a supine rest period, ECGs were collected in triplicate at the pre-specific time points indicated within the study protocol and described below.
Twelve-lead ECGs were to be performed in triplicate approximately 1 minute apart after lying quietly for at least 3 min at: • Screening • Check-in (Day—1) • Day 1: 1 hour pre-dose and 2 hours, 4 hours, 6 hours, and 8 hours post-dose on Day 1 • Day 2: 1 hour pre-dose (corresponding to 23 hours post-dose on Day 1) and 2 hours, 4 hours, 6 hours, and 8 hours post-dose • Days 3-7: 2 hours post-dose • Day 8 • Prior to discharge on Day 9 • End of the observation period (Day 14)
The QT and RR value for each measured beat were used for HR correction. Three beats were measured on each of the triplicate ECGs at each time point. The mean value from each triplicate tracing was calculated, and then the mean of all available measurements from a nominal time point were used as the patient's reportable value at that time point. • 5. ECG Methodology: Central Laboratory
[published correction appears in J Pharmacokinet Pharmacodyn. […] J Pharmacokinet Pharmacodyn. […] In all calculations, concentrations in patients who received placebo were set to zero.
as §6
An unstructured covariance matrix was specified for the repeated measures at post-dose time points within patient.

[12] = simulated gastric fluid, 0 minutes
[13] = simulated gastric fluid, 60 minutes
[14] = simulated intestinal fluid, 0 minutes
[15] = simulated intestinal fluid, 180 minutes
[16] = linear mixed-effects model, C-QTc population

T1 sequence (Q12809 whole entry): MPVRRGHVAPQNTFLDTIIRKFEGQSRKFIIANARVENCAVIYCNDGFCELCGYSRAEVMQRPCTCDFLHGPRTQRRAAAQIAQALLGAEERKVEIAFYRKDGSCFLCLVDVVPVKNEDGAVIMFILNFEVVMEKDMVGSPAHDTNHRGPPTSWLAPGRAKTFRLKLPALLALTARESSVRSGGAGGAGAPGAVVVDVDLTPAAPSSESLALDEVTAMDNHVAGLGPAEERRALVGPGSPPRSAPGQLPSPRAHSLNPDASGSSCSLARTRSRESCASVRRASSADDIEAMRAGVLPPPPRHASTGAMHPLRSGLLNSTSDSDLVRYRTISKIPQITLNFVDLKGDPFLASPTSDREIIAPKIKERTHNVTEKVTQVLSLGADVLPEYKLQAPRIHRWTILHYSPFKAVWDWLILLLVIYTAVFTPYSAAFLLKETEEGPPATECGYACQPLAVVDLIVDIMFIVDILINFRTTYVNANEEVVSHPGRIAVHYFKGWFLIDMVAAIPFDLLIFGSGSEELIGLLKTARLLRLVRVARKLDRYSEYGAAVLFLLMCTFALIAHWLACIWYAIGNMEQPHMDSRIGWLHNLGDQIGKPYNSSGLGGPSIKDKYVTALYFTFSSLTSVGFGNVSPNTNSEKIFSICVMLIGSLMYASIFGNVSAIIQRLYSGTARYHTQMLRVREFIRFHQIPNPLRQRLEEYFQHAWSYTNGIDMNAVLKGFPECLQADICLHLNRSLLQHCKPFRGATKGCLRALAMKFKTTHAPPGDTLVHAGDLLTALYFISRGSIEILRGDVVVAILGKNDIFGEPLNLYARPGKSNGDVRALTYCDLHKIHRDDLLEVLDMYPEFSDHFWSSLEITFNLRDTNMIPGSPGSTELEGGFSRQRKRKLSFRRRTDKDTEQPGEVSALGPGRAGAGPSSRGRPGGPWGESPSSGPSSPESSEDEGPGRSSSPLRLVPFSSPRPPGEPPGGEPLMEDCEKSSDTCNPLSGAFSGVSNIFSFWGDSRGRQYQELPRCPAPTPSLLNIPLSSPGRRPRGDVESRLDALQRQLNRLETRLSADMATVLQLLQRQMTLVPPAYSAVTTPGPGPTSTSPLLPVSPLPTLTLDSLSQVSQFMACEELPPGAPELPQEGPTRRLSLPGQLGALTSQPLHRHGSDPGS
Sequence of hERG (human ether-a-go-go-related gene) channel current (Q12809 whole entry): as above
Sequence of hERG (human ether-à-go-go-related gene) channel current (Q12809 whole entry): as above

CCC(=O)C(CC(C)N(C)C)(c1ccccc1)c1ccccc1 (racemic) [racemic methadone]
IC50 (hERG [1]): 1000 nM
inhibition at 0.3 µM (hERG [1]; 0.3 μM, read-out: Inhibition of hERG current (Mean, SEM; n=4)): 33.4%
inhibition at 1 µM (hERG [1]; 1 uM, read-out: Inhibition of hERG current (Mean, SEM; n=4)): 43.6%
inhibition at 10 µM (hERG [1]; 10 μM, read-out: Inhibition of hERG current (Mean, SEM; n=4)): 86.9%
inhibition at 3 μM (hERG [1]; 3 AM, read-out: Inhibition of hERG current (Mean, SEM; n=4)): 71.1%
Hill coefficient [2]: 0.743

CCC(=O)C(C[C@H](C)N(C)C)(c1ccccc1)c1ccccc1 [esmethadone HCl]
solubility thermodynamic ([3]; pH 1.2, simulated gastric fluid, Mean, pH 1.2, 37° C.): 58.8 mg/mL
solubility thermodynamic ([3]; pH 1.2, simulated gastric fluid, replicates, pH 1.2, 37° C., individual replicates): 62.1 mg/mL
solubility thermodynamic ([3]; pH 4.5, aqueous buffer, Mean, pH 4.5, 37° C.): 66.9 mg/mL
solubility thermodynamic ([3]; pH 4.5, aqueous buffer, replicates, pH 4.5, 37° C., individual replicates): 67 mg/mL
solubility thermodynamic ([3]; pH 6.8, aqueous buffer, Mean, pH 6.8, 37° C.): 3.2 mg/mL
solubility thermodynamic ([3]; pH 6.8, aqueous buffer, replicates, pH 6.8, 37° C., individual replicates): 3.1 mg/mL
Stability of the drug substance in each buffer ([3]; over the total time of the solubility study): ≤ 10%
Equilibrium solubility, replicates ([3]; pH 1.2, 37° C., individual replicates): 60.0 mg/mL and 54.2 mg/mL
Equilibrium solubility, replicates ([3]; pH 4.5, 37° C., individual replicates): 66.7 mg/mL and 66.8 mg/mL
Equilibrium solubility, replicates ([3]; pH 6.8, 37° C., individual replicates): 3.2 mg/mL
% Compound Remaining, Mean (in vitro [4]; [12]): 100 % remaining
% Compound Remaining, Rep. 1-3 (in vitro [4]; [12]): 100.0 % remaining
% Compound Remaining, Mean (in vitro [4]; [13]): 109 % remaining
% Compound Remaining, Rep. 1-3 (in vitro [4]; [13]): 110.2 % remaining and 127.3 % remaining and 90.0 % remaining
% Compound Remaining, Mean (in vitro [4]; [14]): 100 % remaining
% Compound Remaining, Rep. 1-3 (in vitro [4]; [14]): 100.0 % remaining
% Compound Remaining, Mean (in vitro [4]; [15]): 97 % remaining
% Compound Remaining, Rep. 1-3 (in vitro [4]; [15]): 89.6 % remaining and 96.6 % remaining and 105.9 % remaining
recovery (in vitro [5]; Caco-2, Mean recovery values, across the assays): 51 to 74%
recovery (in vitro [5]; Caco-2, Percent Recovery, Mean (SD), A-B, 1 μg/mL): 51%
recovery (in vitro [5]; Caco-2, Percent Recovery, Mean (SD), A-B, 10 μg/mL): 57%
recovery (in vitro [5]; Caco-2, Percent Recovery, Mean (SD), A-B, 100 μg/mL): 61%
recovery (in vitro [5]; Caco-2, Percent Recovery, Mean (SD), B-A, 1 μg/mL): 60%
recovery (in vitro [5]; Caco-2, Percent Recovery, Mean (SD), B-A, 10 μg/mL): 74%
recovery (in vitro [5]; Caco-2, Percent Recovery, Mean (SD), B-A, 100 μg/mL): 74%
recovery (in vitro [5]; Caco-2, Percent Recovery, Rep. 1-3, A-B, 1 μg/mL): 53%
recovery (in vitro [5]; Caco-2, Percent Recovery, Rep. 1-3, A-B, 10 μg/mL): 57%
recovery (in vitro [5]; Caco-2, Percent Recovery, Rep. 1-3, A-B, 100 μg/mL): 64%
recovery (in vitro [5]; Caco-2, Percent Recovery, Rep. 1-3, B-A, 1 μg/mL): 65%
recovery (in vitro [5]; Caco-2, Percent Recovery, Rep. 1-3, B-A, 10 μg/mL): 67%
recovery (in vitro [5]; Caco-2, Percent Recovery, Rep. 1-3, B-A, 100 μg/mL): 74%
Papp A→B (in vitro [5]; Mean (SD)): 16.3 ×10⁻⁶ cm/s
Papp B→A (in vitro [5]; Mean (SD)): 28.6 ×10⁻⁶ cm/s
Papp A→B (in vitro [5]; Rep. 1-3): 21 ×10⁻⁶ cm/s
Papp B→A (in vitro [5]; Rep. 1-3): 29.4 ×10⁻⁶ cm/s
Percent Recovery, Rep. 1-3 (Caco-2 monolayer; A-B, 10 μg/mL): 54%
Percent Recovery, Rep. 1-3 (Caco-2 monolayer; A-B, 100 μg/mL): 56%
Percent Recovery, Rep. 1-3 (Caco-2 monolayer; B-A, 1 μg/mL): 58% and 59%
Percent Recovery, Rep. 1-3 (Caco-2 monolayer; B-A, 10 μg/mL): 82%
Percent Recovery, Rep. 1-3 (Caco-2 monolayer; B-A, 100 μg/mL): 82% and 68%
Permeability category (Caco-2 monolayer; Caco-2): high permeability

CCC(=O)C(C[C@@H](C)N(C)C)(c1ccccc1)c1ccccc1 [levomethadone]
inhibition at 0.366 µM (hERG [1]; 0.366 μM (n=5), 35-37° C., read-out: Inhibition of hERG current (Mean±SEM)): 36 ± 4.9%
inhibition at 1.13 µM (hERG [1]; 1.13 μM (n=4), read-out: Inhibition of hERG current (Mean±SEM)): 54.3 ± 6.7%
inhibition at 3.32 µM (hERG [1]; 3.32 μM (n=4), read-out: Inhibition of hERG current (Mean±SEM)): 73.6 ± 1.5%
inhibition at 11.2 µM (hERG [1]; 11.2 μM, read-out: Inhibition of hERG current (Mean±SEM)): 90 ± 0.5%
IC50 [2]: 828 nM
Hill coefficient [2]: 0.764

CCC(=O)C(C[C@H](C)N(C)C)(c1ccccc1)c1ccccc1 [esmethadone]
Cmax [6]: 273 ng/mL
Effect on HR (healthy volunteers; Day 10): mild HR slowing
Peak ΔΔQTcF, time-based central tendency analysis (healthy volunteers; Day 10, 25 mg cohort): 11.5 ms
Peak ΔΔQTcF, time-based central tendency analysis (healthy volunteers; Day 10, 50 mg QD cohort): 26.8 ms
Peak ΔΔQTcF, time-based central tendency analysis (healthy volunteers; Day 10, 75 mg QD cohort): 28.8 ms
Subjects with pronounced QTcF prolongation (QTcF>60 ms or absolute QTcF>480 ms) (healthy volunteers; categorical analysis, any treatment group): no subjects
Effects on the PR or QRS intervals (healthy volunteers; in vivo): no clinically meaningful effects
Steady state Ctrough concentration (Day 10) ([7]; 25 mg): 142.7 ng/mL
Steady state Ctrough concentration (Day 10) ([7]; 50 mg): 326.2 ng/mL
Steady state Ctrough concentration (Day 10) ([7]; 75 mg): 338.8 ng/mL
inhibition at 0.3 µM (hERG [8]): 27.3 ± 1.6%
inhibition at 1 µM (hERG [8]): 48.8 ± 3.4%
inhibition at 3 μM (hERG [8]): 68.6 ± 0.3%
inhibition at 10 µM (hERG [8]): 88.6 ± 0.7%
IC50 [9]: 1000 nM
Hill coefficient ([9]; GLP study): 0.8
Highest PK values on Day 1 ([10]; 25 mg (75 mg Day 1)): 254.5 ng/mL
Highest PK values on Day 1 ([10]; 50 mg (100 mg Day 1)): 343.9 ng/mL
Cmax ([10]; 25 mg QD group, Day 1 after 75 mg loading dose): 265 ng/mL
Cmax ([10]; 50 mg QD group, Day 1 after 100 mg loading dose): 338 ng/mL
Model-predicted ΔΔQTcF at 10 ms Threshold concentration ([11]; 300 ng/ml, linear model, (90% CI)): 7.18 (4.36, 10.00) ms
Model-predicted ΔΔQTcF at geometric mean Cmax ([11]; 25 mg QD group after 75 mg loading dose, 265.2 ng/mL, linear model, (90% CI)): 6.7 ms and 6.71 ms and 6.71 (3.94, 9.48) ms
Maximum LS mean ΔΔQTcF, by-time point analysis ([11]; 25 mg dose group (75 mg loading), Day 2 pre-dose time point): 7.7 ms
Model-predicted ΔΔQTcF at geometric mean Cmax ([11]; 50 mg QD group after 100 mg loading dose, 337.8 ng/mL, linear model, (90% CI)): 7.7 ms and 7.69 ms and 7.69 (4.80, 10.58) ms
Maximum LS mean ΔΔQTcF, by-time point analysis ([11]; 50 mg dose group (100 mg loading), Day 1, 8 hour time point): 10.9 ms
Slope of the concentration-QTc relationship (esmethadone Slope) [11, 16]: 0.014 ms per ng/mL
Treatment effect-specific intercept (Treatment Effect) [11, 16]: 3.11 ms
ECG morphology changes ([11]; studied doses): no clinically significant ECG morphology changes
Effect on QTc ([11]; studied doses): modest, dose-dependent increase in QTc
Effect on heart rate, PR, or QRS ([11]; studied doses): no clinically significant effect
